Laboratory results from publication PMC10282093, “Structural basis of α1A-adrenergic receptor activation and recognition by an extracellular nanobody” (Nature Communications, 2023).
“And” between values parts separate entries of the source, which are not always exact repeats. Equal values may be shown once.

Assays:
α1ARs over α2ARs = details: cited from earlier work
α1DAR = target: T1, α1DAR (Homo sapiens, UniProt P25100); assay: [3H]prazosin radioligand competition binding, Sf9 membranes; details: 1 h
T1 construct: made in house; host or cells: Sf9 insect cells (membranes)
T1 sequence (P25100 1-572): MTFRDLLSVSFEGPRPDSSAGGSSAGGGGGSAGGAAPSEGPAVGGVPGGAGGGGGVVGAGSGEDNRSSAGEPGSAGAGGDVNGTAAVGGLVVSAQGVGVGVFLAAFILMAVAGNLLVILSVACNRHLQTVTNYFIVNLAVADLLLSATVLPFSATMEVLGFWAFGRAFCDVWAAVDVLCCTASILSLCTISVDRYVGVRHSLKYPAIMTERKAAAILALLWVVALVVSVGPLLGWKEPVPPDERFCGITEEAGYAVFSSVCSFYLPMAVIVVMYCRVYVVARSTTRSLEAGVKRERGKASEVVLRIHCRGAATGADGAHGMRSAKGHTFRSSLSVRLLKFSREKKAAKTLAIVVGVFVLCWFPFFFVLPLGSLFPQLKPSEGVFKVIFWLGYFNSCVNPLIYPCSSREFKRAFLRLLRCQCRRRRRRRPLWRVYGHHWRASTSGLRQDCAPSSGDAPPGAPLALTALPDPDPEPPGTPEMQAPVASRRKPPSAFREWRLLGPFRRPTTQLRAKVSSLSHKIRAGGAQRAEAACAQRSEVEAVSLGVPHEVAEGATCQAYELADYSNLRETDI
Protocol: (§1) After centrifugation, the pellet was homogenized in binding buffer and used as the membrane fraction in binding assays. […] Receptors were incubated for 1 h at room temperature with various concentrations of ligand in a total volume of 100 µl. After the reaction, the mixture was trapped on Whatman GF/B glass filters. Bound and free radioligands were separated by washing with ice-cold binding buffer. Radioactivity was measured on a MicroBeta2 liquid scintillation counter (PerkinElmer).

α1AAR [1] = target: T2, α1AAR (Homo sapiens, UniProt P35348); assay: Glo-sensor cAMP signaling assay with engineered Gsq protein in HEK293T cells; details: HEK-293T
T2 sequence (P35348 1-466): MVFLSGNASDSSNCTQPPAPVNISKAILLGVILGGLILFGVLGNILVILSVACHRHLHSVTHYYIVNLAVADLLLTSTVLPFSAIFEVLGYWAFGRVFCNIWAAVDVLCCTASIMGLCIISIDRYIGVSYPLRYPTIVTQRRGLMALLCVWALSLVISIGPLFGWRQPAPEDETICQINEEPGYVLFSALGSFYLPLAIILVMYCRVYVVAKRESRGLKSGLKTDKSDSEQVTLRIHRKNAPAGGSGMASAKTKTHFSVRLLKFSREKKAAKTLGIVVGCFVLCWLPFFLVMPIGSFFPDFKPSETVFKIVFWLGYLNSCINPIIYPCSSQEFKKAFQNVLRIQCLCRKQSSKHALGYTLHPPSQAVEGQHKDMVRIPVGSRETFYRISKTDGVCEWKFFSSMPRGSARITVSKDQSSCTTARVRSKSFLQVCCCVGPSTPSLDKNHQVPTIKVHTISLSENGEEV
Protocol: In brief, pGloSensor™−22F plasmid, receptor plasmid, and Gsq plasmid were transfected into HEK293T cells. At 24 h after transfection, the cells were switched into a CO2-Independent Medium (Gibco) and incubated with GloSensor^TM cAMP reagent. The mixture was then transferred to a 96-well white plate. The 96-well plate is placed at 37 °C in the dark for 1 h, then placed at room temperature in the dark for 1 h before use. […] The result curves were calculated and fitted by GraphPad Prism 9.

α1AAR [2] = target: T3, α1AAR (Homo sapiens, UniProt P35348); assay: [3H]prazosin radioligand binding, Sf9 membranes
T3 sequence (P35348 1-370): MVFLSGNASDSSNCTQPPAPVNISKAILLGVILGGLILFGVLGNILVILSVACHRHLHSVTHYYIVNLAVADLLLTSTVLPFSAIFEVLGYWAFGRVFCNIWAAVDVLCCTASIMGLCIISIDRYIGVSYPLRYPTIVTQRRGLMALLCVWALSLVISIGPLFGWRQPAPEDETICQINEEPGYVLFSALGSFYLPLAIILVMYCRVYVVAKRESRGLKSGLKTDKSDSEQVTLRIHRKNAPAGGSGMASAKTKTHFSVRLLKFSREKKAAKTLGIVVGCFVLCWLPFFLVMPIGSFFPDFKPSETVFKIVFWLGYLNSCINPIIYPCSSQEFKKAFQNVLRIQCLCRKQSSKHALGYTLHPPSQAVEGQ
Protocol: as §1

HEK293T cells (mock) = assay: Glo-sensor cAMP assay, mock (negative control); type: cell-based
Protocol: In brief, […] plasmid, receptor plasmid, and Gsq plasmid were transfected into HEK293T cells. At 24 h after transfection, the cells were switched into a CO2-Independent Medium (Gibco) and incubated with GloSensor^TM cAMP reagent. The mixture was then transferred to a 96-well white plate. The 96-well plate is placed at 37 °C in the dark for 1 h, then placed at room temperature in the dark for 1 h before use. […] The result curves were calculated and fitted by GraphPad Prism 9.

[3] = target: T4, purified α1AAR fused at the C-terminus to an enhanced green fluorescent protein (Homo sapiens, UniProt P35348, N7Q | N13Q | N22Q); assay: flow cytometry on cells; on-yeast titration as a1, in the presence of 500 μM noradrenaline; details: one partner purified
T4 construct: α1A-adrenergic receptor, human; Used in the on-yeast titration with or without 500 μM ligand (oxymetazoline, noradrenaline, tamsulosin, phentolamine); not shown: EGFP, C-terminal, kept

[4] = target: T4, purified α1AAR fused at the C-terminus …; assay: flow cytometry on cells; on-yeast titration as a1, in the presence of 500 μM oxymetazoline; details: one partner purified

(+)-cyclazosin
selectivity for α1ARs over α2ARs (α1ARs over α2ARs): 100–1000 fold | subtype preference among α1ARs (α1ARs over α2ARs): slight preference for α1BAR over α1AAR

Cc1cc(C(C)(C)C)c(O)c(C)c1CC1=NCCN1 [Oxymetazoline, oxymetazoline]
remaining binding at 100 µM (α1DAR; oxymetazoline Log[M] -4): 40% | remaining binding at 10 µM (α1DAR; oxymetazoline Log[M] -5): 78% | remaining binding at 1 µM (α1DAR; oxymetazoline Log[M] -6): 104% | remaining binding at 0.01 µM (α1DAR; oxymetazoline Log[M] -8): 101% | remaining binding at 0.001 µM (α1DAR; oxymetazoline Log[M] -9): 85.5% | remaining binding at 0.0001 µM (α1DAR; oxymetazoline Log[M] -10): 96.6% | activation at 100 µM (α1AAR [1]; read-out: α1AAR activation (Noradrenaline %), Oxy Log[M] -4): 79.5% | activation at 10 µM (α1AAR [1]; read-out: α1AAR activation (Noradrenaline %), Oxy Log[M] -5): 82.8% | activation at 1 µM (α1AAR [1]; read-out: α1AAR activation (Noradrenaline %), Oxy Log[M] -6): 89.5% | activation at 0.1 µM (α1AAR [1]; read-out: α1AAR activation (Noradrenaline %), Oxy Log[M] -7): 76.5% | activation at 0.01 µM (α1AAR [1]; read-out: α1AAR activation (Noradrenaline %), Oxy Log[M] -8): 64.3% | activation at 0.001 µM (α1AAR [1]; read-out: α1AAR activation (Noradrenaline %), Oxy Log[M] -9): 30.7% | [3H]prazosin binding (α1AAR [2]; Fig 1c, oxymetazoline Log[M] -4): 10.9281% and 8.737% and 2.765% | [3H]prazosin binding (α1AAR [2]; Fig 1c, oxymetazoline Log[M] -5): 28.5329% and 15.8053% and 21.6214% | [3H]prazosin binding (α1AAR [2]; Fig 1c, oxymetazoline Log[M] -6): 48.3547% and 40.7911% and 47.5462% | [3H]prazosin binding (α1AAR [2]; Fig 1c, oxymetazoline Log[M] -7): 71.541% and 85.4423% and 88.1547% | [3H]prazosin binding (α1AAR [2]; Fig 1c, oxymetazoline Log[M] -8): 80.5129% and 95.3793% and 78.3743% | [3H]prazosin binding (α1AAR [2]; Fig 1c, oxymetazoline Log[M] -9): 85.0772% and 90.4238% and 92.4582% | [3H]prazosin binding (α1AAR [2]; Fig 1c, oxymetazoline Log[M] -10): 89.85% and 99.1089% and 88.2591% | [3H]prazosin binding (α1AAR [2]; SupFig 3a, oxymetazoline Log[M] -4): 12.1047% and 12.5905% and 4.0484% | [3H]prazosin binding (α1AAR [2]; SupFig 3a, oxymetazoline Log[M] -5): 17.0033% and 16.477% and 26.9623% | [3H]prazosin binding (α1AAR [2]; SupFig 3a, oxymetazoline Log[M] -6): 53.0745% and 43.3179% and 35.5045% | [3H]prazosin binding (α1AAR [2]; SupFig 3a, oxymetazoline Log[M] -7): 77.4054% and 89.6316% and 82.5874% | [3H]prazosin binding (α1AAR [2]; SupFig 3a, oxymetazoline Log[M] -8): 97.364% and 96.109% and 85.3403% | [3H]prazosin binding (α1AAR [2]; SupFig 3a, oxymetazoline Log[M] -9): 100.805% and 102.506% and 100.765% | [3H]prazosin binding (α1AAR [2]; SupFig 3a, oxymetazoline Log[M] -10): 92.5464% and 102.06% and 94.2468% | [3H]prazosin binding (α1AAR [2]; SupFig 3a, oxymetazoline Log[M] -11): 99.0644% and 106.675% and 101.331% | [3H]prazosin binding (α1AAR [2]; SupFig 5b, Oxy Log[M] -4, listed as Oxy): 3.711% and 5.398% and 5.024% | [3H]prazosin binding (α1AAR [2]; SupFig 5b, Oxy Log[M] -5, listed as Oxy): 10.3036% and 9.182% and 6.784% | [3H]prazosin binding (α1AAR [2]; SupFig 5b, Oxy Log[M] -6, listed as Oxy): 25.9506% and 41.5063% and 33.8379% | [3H]prazosin binding (α1AAR [2]; SupFig 5b, Oxy Log[M] -7, listed as Oxy): 92.3589% and 77.9429% and 95.5776% | [3H]prazosin binding (α1AAR [2]; SupFig 5b, Oxy Log[M] -8, listed as Oxy): 101.851% and 78.107% and 77.5873% | [3H]prazosin binding (α1AAR [2]; SupFig 5b, Oxy Log[M] -9, listed as Oxy): 102.225% and 74.633% and 114.735% | [3H]prazosin binding (α1AAR [2]; SupFig 5b, Oxy Log[M] -10, listed as Oxy): 96.3983% and 104.267% and 110.313% | [3H]prazosin binding (α1AAR [2]; SupFig 5b, Oxy Log[M] -11, listed as Oxy): 110.176% and 107.431% and 115.738% | [3H]prazosin binding (α1AAR [2]; oxymetazoline Log[M] -4, + 5 μM Nb29): 2.395% and 8.488% and 7.551% | [3H]prazosin binding (α1AAR [2]; oxymetazoline Log[M] -5, + 5 μM Nb29): 13.6695% and 16.4815% and 14.4506% | [3H]prazosin binding (α1AAR [2]; oxymetazoline Log[M] -6, + 5 μM Nb29): 33.0932% and 34.9679% and 29.0314% | [3H]prazosin binding (α1AAR [2]; oxymetazoline Log[M] -7, + 5 μM Nb29): 67.0717% and 63.0359% and 61.005% | [3H]prazosin binding (α1AAR [2]; oxymetazoline Log[M] -8, + 5 μM Nb29): 88.2659% and 86.6777% and 81.6265% | [3H]prazosin binding (α1AAR [2]; oxymetazoline Log[M] -9, + 5 μM Nb29): 85.0373% and 101.154% and 98.9412% | [3H]prazosin binding (α1AAR [2]; oxymetazoline Log[M] -10, + 5 μM Nb29): 98.863% and 104.175% and 100.087% | cAMP Glo-sensor signal (Noradrenaline %) (HEK293T cells (mock); Oxy Log[M] -4, listed as Oxy): 20.5576% and 21.072% and 20.3482% | cAMP Glo-sensor signal (Noradrenaline %) (HEK293T cells (mock); Oxy Log[M] -5, listed as Oxy): 16.9742% and 18.9752% and 17.0682% | cAMP Glo-sensor signal (Noradrenaline %) (HEK293T cells (mock); Oxy Log[M] -6, listed as Oxy): 11.7764% and 12.3973% and 9.944% | cAMP Glo-sensor signal (Noradrenaline %) (HEK293T cells (mock); Oxy Log[M] -7, listed as Oxy): 5.984% and 4.961% and 5.326% | cAMP Glo-sensor signal (Noradrenaline %) (HEK293T cells (mock); Oxy Log[M] -8, listed as Oxy): 5.537% and 5.0478% and 4.209% | cAMP Glo-sensor signal (Noradrenaline %) (HEK293T cells (mock); Oxy Log[M] -9, listed as Oxy): 5.27% and 4.932% and 5.142% | cAMP Glo-sensor signal (Noradrenaline %) (HEK293T cells (mock); Oxy Log[M] -10, listed as Oxy): 5.3547% and 4.562% and 4.147% | cAMP Glo-sensor signal (Noradrenaline %) (HEK293T cells (mock); Oxy Log[M] -11, listed as Oxy): 5.371% and 4.924% and 4.109%

B1: Nb29 displayed on yeast cells (VHH)
VHH: QVQLQESGGGLVQAGGSLRLSCAASGNISAHWKMGWYRQAPGKEREFVAGIGYANTNYADSVKGRFTISRDNAKNTVYLQMNSLKPEDTAVYYCAAYSYYRDHSYWGQGTQVTVSS
notes: Expression was detected with an anti-HA antibody; also called Nb29-expressing yeast cells
Kd [3]: 38.8 nM | Kd [4]: 37.6 nM
